# Reference: patent US11505547B2, “Compounds” (STEP PHARMA S.A.S., priority 2017, dated 2022)
# pIC50: −log10 of the molar value.
# Target: T1, human CTPS1 (Homo sapiens, UniProt P17812)
# T1 construct: purchased Proteros biostructures GmbH
# T1 sequence (P17812 1-591): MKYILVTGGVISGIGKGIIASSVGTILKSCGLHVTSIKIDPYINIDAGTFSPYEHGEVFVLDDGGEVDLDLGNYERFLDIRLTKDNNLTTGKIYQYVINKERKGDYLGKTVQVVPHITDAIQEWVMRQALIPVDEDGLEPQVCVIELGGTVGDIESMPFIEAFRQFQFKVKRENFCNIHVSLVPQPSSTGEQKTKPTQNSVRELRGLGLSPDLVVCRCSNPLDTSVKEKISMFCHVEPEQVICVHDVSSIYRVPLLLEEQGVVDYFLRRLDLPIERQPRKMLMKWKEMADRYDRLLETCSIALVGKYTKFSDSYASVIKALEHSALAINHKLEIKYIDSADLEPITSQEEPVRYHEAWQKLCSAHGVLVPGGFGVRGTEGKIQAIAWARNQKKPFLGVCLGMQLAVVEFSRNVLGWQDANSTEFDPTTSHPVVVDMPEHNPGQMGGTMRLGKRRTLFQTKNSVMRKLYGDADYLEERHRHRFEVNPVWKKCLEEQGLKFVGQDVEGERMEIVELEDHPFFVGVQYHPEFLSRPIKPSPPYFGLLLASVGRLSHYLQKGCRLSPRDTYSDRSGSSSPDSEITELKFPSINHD
# Experiment: Human CTPS1 enzyme inhibition, ADP-Glo Max assay
# Type: biochemical
# Conditions: human full length CTPS1, read-out: CTPS1 (Human CTPS1 Enzyme Inhibition data grouped by potency range, IC50)
# Protocol: Biological Example 1—Human CTPS1 Enzyme Inhibition
# The enzyme inhibitory activities of compounds invented against the target of interest were determined using the ADP-Glo™ Max assay (Promega, UK). Assays for human CTPS1 were performed in 1× assay buffer containing 50 mM Tris, 10 mM MgCl2, 0.01% Tween-20, pH to 8.0 accordingly. Finally, immediately before use, L-cysteine was added to the 1× assay buffer to a final concentration of 2 mM. All reagents are from Sigma-Aldrich unless specified otherwise. Human full length active C-terminal FLAG-Hiss-tag CTPS1 (UniProtKB-P17812, CTPS[1-591]-[…]) was obtained from Proteros biostructures GmbH.
# 3× human CTPS1 protein was prepared in 1× assay buffer to the final working protein concentration required for the reaction. A 2 uL volume per well of 3× human CTPS1 protein was mixed with 2 uL per well of 3× test compound (compound prepared in 1× assay buffer to an appropriate final 3× compound concentration respective to the concentration response curve designed for the compounds under test) for 10 minutes at 25° C. The enzymatic reaction was then initiated by addition of a 2 uL per well volume of a pre-mixed substrate mix (UltraPure ATP from ADP-Glo™ Max kit (0.31 mM), GTP (0.034 mM), UTP (0.48 mM) and L-glutamine (0.186 mM)) and the mixture was incubated for an appropriate amount of time within the determined linear phase of the reaction at 25° C. under sealed plate conditions with constant agitation at 500 revolutions per minute (rpm). ADP-GIo™ Max reagent was added for 60 minutes (6 uL per well) and subsequently ADP-Glo™ Max development reagent was added for 60 minutes (12 uL per well) prior to signal detection in a microplate reader (EnVision® Multilabel Reader, Perkin Elmer). Following each reagent addition over the course of the assay, assay plates were pulse centrifuged for 30 seconds at 500 rpm.
# In all cases, the enzyme converts ATP to ADP and the ADP-Glo™ Max reagent subsequently depletes any remaining endogenous ATP in the reaction system. The ADP-Glo™ Max detection reagent converts the ADP that has been enzymatically produced back into ATP and using ATP as a substrate together with luciferin for the enzyme luciferase, light is generated which produces a detectable luminescence. […] The percentage inhibition produced by each concentration of compound was calculated using the equation shown below: […]
# Percentage inhibition was then plotted against compound concentration, and the 50% inhibitory concentration (IC50) was determined from the resultant concentration-response curve.
row,Structure (SMILES),pIC50
1,"CCC(NC(=O)c1ccc(-c2cncc(C(F)(F)F)c2)cc1)c1csc(NS(=O)(=O)C2CC2)n1 (racemic) [Example R2, N-(1-(2-(cyclopropanesulfonamido)thiazol-4-yl)propyl)-4-(5-(trifluoromethyl)pyridin-3-yl)benzamide]",6.00 to 7.00
2,"CCC(NC(=O)c1ccc(-c2cncc(F)c2)cc1)c1csc(NS(=O)(=O)C2CC2)n1 (racemic) [Example R59, N-(1-(2-(cyclopropanesulfonamido)thiazol-4-yl)propyl)-4-(5-fluoropyridin-3-yl)benzamide]",6.00 to 7.00
3,"CCC(NC(=O)c1ccc(-c2cncc(C)c2)cc1)c1csc(NS(=O)(=O)C2CC2)n1 (racemic) [Example R60, N-(1-(2-(cyclopropanesulfonamido)thiazol-4-yl)propyl)-4-(5-methylpyridin-3-yl)benzamide]",6.00 to 7.00
4,"CCC(NC(=O)c1ccc(-c2cccnc2)cc1)c1csc(NS(=O)(=O)C2CC2)n1 (racemic) [Example R61, N-(1-(2-(cyclopropanesulfonamido)thiazol-4-yl)propyl)-4-(pyridin-3-yl)benzamide]",6.00 to 7.00
5,"CCOc1cncc(-c2ccc(C(=O)NC(CC)c3csc(NS(=O)(=O)C4CC4)n3)c(F)c2)n1 (racemic) [Example R62, N-(1-(2-(cyclopropanesulfonamido)thiazol-4-yl)propyl)-4-(6-ethoxypyrazin-2-yl)-2-fluorobenzamide]",6.00 to 7.00
6,"CCOc1cncc(-c2ccc(C(=O)N(C)C(CC)c3csc(NS(=O)(=O)C4CC4)n3)c(F)c2)n1 (racemic) [Example R63, N-(1-(2-(cyclopropanesulfonamido)thiazol-4-yl)propyl)-4-(6-ethoxypyrazin-2-yl)-2-fluoro-N-methylbenzamide]",6.00 to 7.00
7,"CCC(NC(=O)c1ccc(-c2cncc(OC(C)C)n2)cc1F)c1csc(NS(=O)(=O)C2CC2)n1 (racemic) [Example R64, N-(1-(2-(cyclopropanesulfonamido)thiazol-4-yl)propyl)-2-fluoro-4-(6-isopropoxypyrazin-2-yl)benzamide]",6.00 to 7.00
8,"CCC(NC(=O)c1ccc(-c2cncc(Cl)n2)cc1)c1csc(NS(=O)(=O)C2CC2)n1 (racemic) [Example R65, 4-(6-chloropyrazin-2-yl)-N-(1-(2-(cyclopropanesulfonamido)thiazol-4-yl)propyl)benzamide]",> 7.00
9,"CCC(NC(=O)c1ccc(-c2cncc(C)n2)cc1)c1csc(NS(=O)(=O)C2CC2)n1 (racemic) [Example R66, N-(1-(2-(cyclopropanesulfonamido)thiazol-4-yl)propyl)-4-(6-methylpyrazin-2-yl)benzamide]",6.00 to 7.00
10,"CCC(NC(=O)c1ccc(-c2cnccn2)cc1)c1csc(NS(=O)(=O)C2CC2)n1 (racemic) [Example R67, N-(1-(2-(cyclopropanesulfonamido)thiazol-4-yl)propyl)-4-(pyrazin-2-yl)benzamide]",6.00 to 7.00
11,"CCC(NC(=O)c1ccc(-c2cncc(C(F)(F)F)c2)cc1)c1csc(NS(=O)(=O)C2CC2)n1 (single isomer, unassigned) [Example R3, N-(1-(2-(cyclopropanesulfonamido)thiazol-4-yl)propyl)-4-(5-(trifluoromethyl)pyridin-3-yl)benzamide]",6.00 to 7.00
12,"CCC(NC(=O)c1ccc(-c2cncc(C(F)(F)F)c2)cc1)c1csc(NS(=O)(=O)C2CC2)n1 (single isomer, unassigned) [Example R4, N-(1-(2-(cyclopropanesulfonamido)thiazol-4-yl)propyl)-4-(5-(trifluoromethyl)pyridin-3-yl)benzamide]",> 7.00
13,"CCC(NC(=O)c1ccc(-c2cncc(F)c2)cc1)c1csc(NS(=O)(=O)C2CC2)n1 (single isomer, unassigned) [Example R68, N-(1-(2-(cyclopropanesulfonamido)thiazol-4-yl)propyl)-4-(5-fluoropyridin-3-yl)benzamide]",5.00 to 6.00
14,"CCC(NC(=O)c1ccc(-c2cncc(F)c2)cc1)c1csc(NS(=O)(=O)C2CC2)n1 (single isomer, unassigned) [Example R69, N-(1-(2-(cyclopropanesulfonamido)thiazol-4-yl)propyl)-4-(5-fluoropyridin-3-yl)benzamide]",> 7.00
15,"CCOc1cncc(-c2ccc(C(=O)NC(CC)c3csc(NS(=O)(=O)C4CC4)n3)c(F)c2)n1 (single isomer, unassigned) [Example R70, N-(1-(2-(cyclopropanesulfonamido)thiazol-4-yl)propyl)-4-(6-ethoxypyrazin-2-yl)-2-fluorobenzamide]",6.00 to 7.00
16,"O=C(NCc1csc(NS(=O)(=O)C2CC2)n1)c1ccc(-c2cccnc2)cc1 [Example R1, N-((2-(cyclopropanesulfonamido)thiazol-4-yl)methyl)-4-(pyridin-3-yl)benzamide]",6.00 to 7.00
17,"CCC(NC(=O)c1ccc(-c2cncc(C(F)(F)F)n2)cc1)c1csc(NS(=O)(=O)C2CC2)n1 (centres unmarked) [Example R5, N-(1-(2-(cyclopropanesulfonamido)thiazol-4-yl)propyl)-4-(6-(trifluoromethyl)pyrazin-2-yl)benzamide]",> 7.00
18,"CCOc1cncc(-c2ccc(C(=O)NC(C)(C)c3csc(NS(=O)(=O)C4CC4)n3)c(OC)c2)n1 [Example R7, N-(2-(2-(cyclopropanesulfonamido)thiazol-4-yl)propan-2-yl)-4-(6-ethoxypyrazin-2-yl)-2-methoxybenzamide]",6.00 to 7.00
19,"O=C(NCc1csc(NS(=O)(=O)C2CC2)n1)c1ccc(-c2ccccc2)cn1 [Example R8, N-((2-(cyclopropanesulfonamido)thiazol-4-yl)methyl)-5-phenylpicolinamide]",5.00 to 6.00
20,"O=C(NCc1csc(NS(=O)(=O)C2CC2)n1)c1ccc(-c2ccccc2)cc1 [Example R9, N-((2-(cyclopropanesulfonamido)thiazol-4-yl)methyl)-[1,1′-biphenyl]-4-carboxamide]",5.00 to 6.00
21,"O=C(NCc1csc(NS(=O)(=O)C2CC2)n1)c1ccc(-c2cncc(C(F)(F)F)n2)cc1F [Example R10, N-((2-(cyclopropanesulfonamido)thiazol-4-yl)methyl)-2-fluoro-4-(6-(trifluoromethyl)pyrazin-2-yl)benzamide]",> 7.00
22,"CCOc1cncc(-c2ccc(C(=O)NCc3csc(NS(=O)(=O)C4CC4)n3)c(F)c2)n1 [Example R11, N-((2-(cyclopropanesuIfonamido)thiazol-4-yl)methyl)-4-(6-ethoxypyrazin-2-yl)-2-fluorobenzamide]",> 7.00
23,"O=C(NCc1csc(NS(=O)(=O)C2CC2)n1)c1ccc(-c2cncc(C(F)(F)F)n2)cc1 [Example R12, N-((2-(cyclopropanesulfonamido)thiazol-4-yl)methyl)-4-(6-(trifluoromethyl)pyrazin-2-yl)benzamide]",> 7.00
24,"CC(C)Oc1cncc(-c2ccc(C(=O)NCc3csc(NS(=O)(=O)C4CC4)n3)cc2)n1 [Example R13, N-((2-(cyclopropanesulfonamido)thiazol-4-yl)methyl)-4-(6-isopropoxypyrazin-2-yl)benzamide]",> 7.00
25,"CCOc1cncc(-c2ccc(C(=O)NCc3csc(NS(=O)(=O)C4CC4)n3)cc2)n1 [Example R14, N-((2-(cyclopropanesulfonamido)thiazol-4-yl)methyl)-4-(6-ethoxypyrazin-2-yl)benzamide]",> 7.00
26,"CCC(CC)(NC(=O)c1ccc(-c2cncc(C(F)(F)F)c2)cc1)c1csc(NS(=O)(=O)C2CC2)n1 [Example R15, N-(3-(2-(cyclopropanesulfonamido)thiazol-4-yl)pentan-3-yl)-4-(5-(trifluoromethyl)pyridin-3-yl)benzamide]",> 7.00
